{"source": "patent US5508293A", "about": "“Pyridinecarboxyimidamide compounds and the use thereof” (Kirin Beer Kabushiki Kaisha, priority 1992, dated 1996)", "key": {"[1]": {"system": "male SD rats", "assay": "Acute toxicity, oral, Compound No. 6", "type": "in vivo, rat (male SD rats, 5 weeks old)", "conditions": "50 mg/kg, male SD rats", "description": "(§1) Acute toxicity of 5-amino-N-cyano-N'-[2-(2-chlorophenyl)ethyl]-3-pyridinecarboximidamide (Compound No. 6) of the present invention on oral administration was examined with male SD rats (5 weeks old). As a result, no rats died at the dose of 50 mg/kg. LD50 was in the range over 50 mg/kg."}, "[2]": {"assay": "Acute toxicity, oral, Compound No. 6", "type": "in vivo, rat (male SD rats, 5 weeks old)", "conditions": "rat, in vivo, male SD rats (5 weeks old)", "description": "as §1"}, "[3]": {"system": "spontaneously hypertensive rats (SHR), mean blood pressure", "assay": "Antihypertensive activities on spontaneously hypertensive rat (intravenously)", "type": "in vivo, rat (male spontaneously hypertensive rats", "conditions": "iv, anesthetized male SHR, i.v., cumulative dosing, read-out: ED20 (the dose which lowered the blood pressure by 20%)", "description": "Animals were anesthetized with urethane: α-chloralose.\nA cannula was inserted into the carotid artery for measuring the mean blood pressure via a pressure transducer. A test compound was cumulatively administered through the cannula inserted into the femoral vein with an interval of 30 minutes. Variation of blood pressure was determined as the percentage change in the blood pressure before administration of the test compound, and the ED20 (the dose which lowered the blood pressure by 20%) was calculated from a dose-response curve."}, "[4]": {"system": "renal hypertensive beagles, blood pressure", "assay": "Antihypertensive activities on renal hypertensive beagles (oral)", "type": "in vivo, dog (2-kidney-1-clipped renal hypertensive beagles)", "description": "Beagles (body weight, 9.0-11.0 kg) were anesthetized with 30 mg/kg of pentobarbital sodium intravenously. The left renal artery was carefully exposed through a flank incision, and wound with two silk sutures and ligated together with a 18G needle (external diameter; 1.2 mm) at two positions with the distance of 5 mm. A polyethylene tube for the measurement of blood pressure (IMG, PE-100) was inserted into the femoral artery, and the other terminal of the tube was exteriorized at the back of the neck. The polyethylene tube was filled with physiological saline containing 500 U/ml of heparin and sealed with a steel wire plug except on the measurement of the blood pressure. Antibiotics (penicilline and streptomycin, manufactured by Meiji Seika) were administered intramuscularly for three days after operation to prevent infections.\nAfter 5-amino-N-cyano-N'-[2-(2-chlorophenyl)ethyl]-3-pyridinecarboximidamide was put into a No. 3 gelatin capsule, a gap was filled with lactose (100 mesh). The capsule was administered orally, and blood pressure was measured for 24 hours after administering the drug. Measurement was carried out without anesthetization under suspension with sling sheet. Blood pressure was measured by connecting the tube for measuring blood pressure to a pressure transducer (TP-400T; manufactured by Nihon Kohden) and recorded on a polygraph."}, "[5]": {"system": "beagles, blood pressure", "assay": "Antihypertensive activity on anesthetized beagles (intravenously)", "type": "in vivo, dog (beagles)", "description": "Antihypertensive activities of 5-amino-N-cyano-N'-[2-(2-chlorophenyl)ethyl]-3-pyridinecarboximidamide (N-cyano-N'-[2-(2-chlorophenyl)ethyl]-5-(3aminopyridine)carboximidamide; Compound No. 6) according to the present invention was assessed by comparison with those of N-cyano-N'-[2-(2-chlorophenyl)ethyl]-3-pyridinecarboximidamide which is thought to be a wellknown compound most similar to the compound of the present invention (see Japanese Patent Laid-Open Publication No. 163061/1991).\nExperiments were carried out with beagles (body weight, 9.2-10.4 kg) under anesthetization by intravenous administering 30 mg/kg of pentobarbital sodium. A cannula was inserted into the right femoral artery for measuring blood pressure. […]"}}}
{"smiles": "N#CNC(=NCCc1ccccc1Cl)c1cncc(N)c1", "note": "[Compound No. 6, 5-amino-N-cyano-N'-[2-(2-chlorophenyl)ethyl]-3-pyridinecarboximidamide]", "values": [{"measurement": "deaths", "setting": "[1]", "value": "no rats died"}, {"measurement": "LD50", "setting": "[2]", "value": "> 50000", "unit": "µg/kg"}, {"measurement": "ED20", "setting": "[3]", "value": 4.6, "unit": "µg/kg"}, {"measurement": "Average blood pressure", "setting": "[4]; 0.25 mg/kg p.o., 0 hour after administration", "value": "122.4 ± 4.4", "unit": "mmHg"}, {"measurement": "Average blood pressure", "setting": "[4]; 0.25 mg/kg p.o., 1 hour after administration", "value": "100.9 ± 7.4", "unit": "mmHg"}, {"measurement": "Average blood pressure", "setting": "[4]; 0.25 mg/kg p.o., 2 hour after administration", "value": "85.7 ± 0.3", "unit": "mmHg"}, {"measurement": "Average blood pressure", "setting": "[4]; 0.25 mg/kg p.o., 4 hour after administration", "value": "102.8 ± 3.9", "unit": "mmHg"}, {"measurement": "Average blood pressure", "setting": "[4]; 0.25 mg/kg p.o., 6 hour after administration", "value": "110.1 ± 2.6", "unit": "mmHg"}, {"measurement": "Average blood pressure", "setting": "[4]; 0.25 mg/kg p.o., 8 hour after administration", "value": "112.6 ± 3.4", "unit": "mmHg"}, {"measurement": "Average blood pressure", "setting": "[4]; 0.25 mg/kg p.o., 24 hour after administration", "value": "118.8 ± 4.8", "unit": "mmHg"}, {"measurement": "Average blood pressure", "setting": "[4]; 0.50 mg/kg p.o., 0 hour after administration", "value": "126.6 ± 0.5", "unit": "mmHg"}, {"measurement": "Average blood pressure", "setting": "[4]; 0.50 mg/kg p.o., 1 hour after administration", "value": "68.1 ± 7.4", "unit": "mmHg"}, {"measurement": "Average blood pressure", "setting": "[4]; 0.50 mg/kg p.o., 2 hour after administration", "value": "84.8 ± 6.1", "unit": "mmHg"}, {"measurement": "Average blood pressure", "setting": "[4]; 0.50 mg/kg p.o., 4 hour after administration", "value": "99.7 ± 12.3", "unit": "mmHg"}, {"measurement": "Average blood pressure", "setting": "[4]; 0.50 mg/kg p.o., 6 hour after administration", "value": "106.2 ± 9.5", "unit": "mmHg"}, {"measurement": "Average blood pressure", "setting": "[4]; 0.50 mg/kg p.o., 8 hour after administration", "value": "114.4 ± 7.3", "unit": "mmHg"}, {"measurement": "Average blood pressure", "setting": "[4]; 0.50 mg/kg p.o., 24 hour after administration", "value": "111.8 ± 3.9", "unit": "mmHg"}, {"measurement": "decrease in blood pressure", "setting": "[4]; oral, 0.25 and 0.5 mg/kg", "value": "successive decrease in blood pressure was observed"}, {"measurement": "decrease in blood pressure", "setting": "[5]; i.v., 3-30 μg/kg", "value": "Dose-dependent decrease in blood pressure was observed"}, {"measurement": "duration of the antihypertensive action", "setting": "[5]; i.v., dose 3 μg/kg", "value": 10, "unit": "min"}, {"measurement": "Antihypertensive activity (%)", "setting": "[5]; i.v., dose 3 μg/kg, 0 min after dosage", "value": 0.0, "unit": "%"}, {"measurement": "Antihypertensive activity (%)", "setting": "[5]; i.v., dose 3 μg/kg, 1 min after dosage", "value": -3.9, "unit": "%"}, {"measurement": "Antihypertensive activity (%)", "setting": "[5]; i.v., dose 3 μg/kg, 2 min after dosage", "value": -12.8, "unit": "%"}, {"measurement": "Antihypertensive activity (%)", "setting": "[5]; i.v., dose 3 μg/kg, 3 min after dosage", "value": -10.3, "unit": "%"}, {"measurement": "Antihypertensive activity (%)", "setting": "[5]; i.v., dose 3 μg/kg, 5 min after dosage", "value": -6.4, "unit": "%"}, {"measurement": "Antihypertensive activity (%)", "setting": "[5]; i.v., dose 3 μg/kg, 7.5 min after dosage", "value": -3.9, "unit": "%"}, {"measurement": "Antihypertensive activity (%)", "setting": "[5]; i.v., dose 3 μg/kg, 10 min after dosage", "value": -3.9, "unit": "%"}, {"measurement": "duration of the antihypertensive action", "setting": "[5]; i.v., dose 10 μg/kg", "value": 45, "unit": "min"}, {"measurement": "Antihypertensive activity (%)", "setting": "[5]; i.v., dose 10 μg/kg, 0 min after dosage", "value": 0.0, "unit": "%"}, {"measurement": "Antihypertensive activity (%)", "setting": "[5]; i.v., dose 10 μg/kg, 1 min after dosage", "value": -16.0, "unit": "%"}, {"measurement": "Antihypertensive activity (%)", "setting": "[5]; i.v., dose 10 μg/kg, 2 min after dosage", "value": -22.7, "unit": "%"}, {"measurement": "Antihypertensive activity (%)", "setting": "[5]; i.v., dose 10 μg/kg, 3 min after dosage", "value": -26.7, "unit": "%"}, {"measurement": "Antihypertensive activity (%)", "setting": "[5]; i.v., dose 10 μg/kg, 5 min after dosage", "value": -26.7, "unit": "%"}, {"measurement": "Antihypertensive activity (%)", "setting": "[5]; i.v., dose 10 μg/kg, 7.5 min after dosage", "value": -26.7, "unit": "%"}, {"measurement": "Antihypertensive activity (%)", "setting": "[5]; i.v., dose 10 μg/kg, 10 min after dosage", "value": -26.7, "unit": "%"}, {"measurement": "Antihypertensive activity (%)", "setting": "[5]; i.v., dose 10 μg/kg, 15 min after dosage", "value": -20.0, "unit": "%"}, {"measurement": "Antihypertensive activity (%)", "setting": "[5]; i.v., dose 10 μg/kg, 20 min after dosage", "value": -16.0, "unit": "%"}, {"measurement": "Antihypertensive activity (%)", "setting": "[5]; i.v., dose 10 μg/kg, 30 min after dosage", "value": -13.3, "unit": "%"}, {"measurement": "Antihypertensive activity (%)", "setting": "[5]; i.v., dose 10 μg/kg, 45 min after dosage", "value": -6.7, "unit": "%"}, {"measurement": "duration of the antihypertensive action", "setting": "[5]; i.v., dose 30 μg/kg", "value": 60, "unit": "min"}, {"measurement": "Antihypertensive activity (%)", "setting": "[5]; i.v., dose 30 μg/kg, 0 min after dosage", "value": 0.0, "unit": "%"}, {"measurement": "Antihypertensive activity (%)", "setting": "[5]; i.v., dose 30 μg/kg, 1 min after dosage", "value": -29.3, "unit": "%"}, {"measurement": "Antihypertensive activity (%)", "setting": "[5]; i.v., dose 30 μg/kg, 2 min after dosage", "value": -40.0, "unit": "%"}, {"measurement": "Antihypertensive activity (%)", "setting": "[5]; i.v., dose 30 μg/kg, 3 min after dosage", "value": -42.7, "unit": "%"}, {"measurement": "Antihypertensive activity (%)", "setting": "[5]; i.v., dose 30 μg/kg, 5 min after dosage", "value": -46.7, "unit": "%"}, {"measurement": "Antihypertensive activity (%)", "setting": "[5]; i.v., dose 30 μg/kg, 7.5 min after dosage", "value": -44.0, "unit": "%"}, {"measurement": "Antihypertensive activity (%)", "setting": "[5]; i.v., dose 30 μg/kg, 10 min after dosage", "value": -42.7, "unit": "%"}, {"measurement": "Antihypertensive activity (%)", "setting": "[5]; i.v., dose 30 μg/kg, 15 min after dosage", "value": -40.0, "unit": "%"}, {"measurement": "Antihypertensive activity (%)", "setting": "[5]; i.v., dose 30 μg/kg, 20 min after dosage", "value": -36.0, "unit": "%"}, {"measurement": "Antihypertensive activity (%)", "setting": "[5]; i.v., dose 30 μg/kg, 30 min after dosage", "value": -33.3, "unit": "%"}, {"measurement": "Antihypertensive activity (%)", "setting": "[5]; i.v., dose 30 μg/kg, 45 min after dosage", "value": -24.0, "unit": "%"}, {"measurement": "Antihypertensive activity (%)", "setting": "[5]; i.v., dose 30 μg/kg, 60 min after dosage", "value": -16.0, "unit": "%"}, {"measurement": "antihypertensive activity determined with the passage of time", "setting": "[5]; summary statement", "value": "extremely potent and sustainable"}]}
